Test results reported in patent US20240132477A1, “Benzimidazole Derivatives and Their Use As Inhibitors of ITK For The Treatment of Skin Disease” (PFIZER INC., priority 2020, published 2024).
Like-named read-outs stand apart in the source and are kept apart here.

Legend:
[1] = target: IL-2-Inducible T-Cell Kinase (ITK) (Homo sapiens (Human), UniProt Q08881); assay: ITK enzyme assay; type: biochemical; settings: geometric mean of count n; ITK FL enzyme, BTK peptide substrate
Description: IL-2-Inducible T-Cell Kinase (ITK) Activity, IC50 (uM)
ITK activity was determined by measuring the effect of a test compound in an ITK enzyme assay.
1.0 M HEPES Buffer pH 7.5 solution was prepared as follows: 238.3 g HEPES free acid (Sigma) and 800 mL of water were combined, and the mixture was stirred until complete dissolution. The pH was adjusted to 7.5 via titration with 5N NaOH and the volume adjusted to 1000 mL. The solution was filtered and sterilized.
ITK assay buffer was prepared as follows: 50 mL of HPLC-grade water was treated with 2 mL of 1.0 M HEPES Buffer, 500 μL of 2% Gelatin (Sigma), 1.0 mL of aqueous MgCl2 solution (1.0 M), and 1.0 mL of aqueous glutathione solution (0.5 M), and the solution was mixed. The solution was brought to 99 mL in a graduated cylinder by addition of water and sterilized through a 0.2 μm filter. 0.1 mL of Brij-35™ Surfact-AmpS™ Detergent Solution (10% w/v aqueous solution, ThermoFisher) and 1.0 mL of ATP (Teknova, 100 mM) were added and the solution was mixed.
Preparation of 1.33×ITK enzyme solution was as follows: 49.99 mL of ITK assay buffer was treated with 4.1 μL of ITK enzyme (ITK FL (N-Flag and C-His tagged, ˜72 kDa) Lake Pharma, 0.25 mg/ml in a buffer containing 25 mM Tris pH 7.8, 150 mM NaCl, 10% glycerol and 2 mM TCEP) and the mixture was gently agitated. The resulting solution was stored on ice. 30 Minutes prior to use, the enzyme solution was removed from ice and equilibrated to RT by incubation in a RT water bath.
Preparation of 4×ITK substrate solution was as follows: 50 mL of ITK assay buffer was treated with 100 μL of BTK peptide (China Peptide Company, 2 mM stock solution in DMSO). The tube was capped, mixed by gently inverting the tube, and then stored on ice. 30 Minutes prior to use, the substrate solution was removed from ice and equilibrated to RT by incubation in a RT water bath.
At the time of assay, 7.5 μL of the 1.33×ITK enzyme solution was added to plate wells containing 0.1 μL of varying concentrations of test compound in DMSO. The plate was incubated 30 min at RT. The plate wells were each treated with 2.5 uL of the 4×ITK substrate solution and the plate was sealed (TopSeal™, Perkin Elmer). The plate was spun at 1000 rpm for 30 sec and then incubated for 60 min at RT. The seal was removed, and each well was treated with 10 μL of Stop/Detect Buffer (20 mM HEPES pH 7.5, 0.01% gelatin, 1 nM LANCE PT66 (Perkin Elmer), 16.5 μg/ml Surelight APC (Perkin Elmer), 10 mM EDTA, 250 mM NaCl). The plate was again covered and was spun at 1000 rpm for 30 seconds. The plate was allowed to incubate overnight at RT and in a closed carrier to reduce dehydration. The seal was removed, and the fluorescence was read with a plate reader with […]. The concentrations and resulting effect values for the tested compound were plotted and the concentration of compound required for 50% effect (IC50) was determined with the four-parameter logistic dose response equation.

[2] = system: IL-2 in supernatants from activated CD4+ human T-cells; assay: IL-2 inhibition in supernatants from activated CD4+ human T-cells (cisbio HTRF); type: cell-based; settings: T-cell, read-out: IL-2 IC50
Description: IL-2-Inhibition Activity, IC50 (uM)
IL-2 inhibition activity in supernatants from activated CD4+ human T-cells was determined by measuring the effect of a test compound on the activity using the cisbio HTRF™ technology.
Human CD4+ T cells were activated with CD3/CD28 for 3 days and expanded for an additional 4-6 days (7 to 9 days total). On day 0, frozen CD4+ T cells were thawed, treated with CD3/CD28 Dynabeads, and incubated at 37° C./5% CO2. On day 3, the beads were removed, and the cells were diluted to 5×10^5 cells/cm^2, placed in G-Rex10 flask, and incubated at 37° C./5% CO2. On day 7 to day 9 the cells were removed from the G-Rex flasks, counted and diluted back to 1×10^6 cells/ml in standard tissue culture flask.
The expanded CD4+ T-cells were centrifuged at 300×g for 10 minutes and resuspended to 0.5 million cells per ml (30,000 cells/well). 60 μl of CD4+ T cells were added per well to a 384 well plate containing 0.1 μL of varying concentrations of test compound in DMSO. The plates were incubated for 15 min at 37° C./5% CO2. 20 μl of diluted ImmunoCult™ (STEMCELL Technologies, 1:12.5 in T cell assay media) were added to all wells of the plate (1:50 final assay concentration). The plates were incubated for an additional 20 to 24 hrs at 37° C./5% CO2. The plates were centrifuged at 300×g for 10 minutes. 16 μL of supernatant was removed and combined with 4 μl of IL-2 HTRF Abs. (cisbio kit). Plates were incubated for 3 hours at RT and read with an EnVision plate reader at 665 nm and 615 nm wavelengths. The concentrations and resulting effect values for the tested compound were plotted and the concentration of compound required for 50% effect (IC50) was determined with the four-parameter logistic dose response equation.

[3] = target: Tropomyosin Receptor Kinase A (TRKA, NTRK1 enzyme) (Homo sapiens (Human), UniProt P04629); assay: TRKA (NTRK1) ThermoFisher Z'-LYTE assay; type: biochemical; settings: read-out: TRKA % inhibition
Description: Tropomyosin Receptor Kinase a (TRKA) Activity, % Inhibition
TRKA, also known as neurotrophic tyrosine kinase receptor type 1 (NTKR1) activity was determined by measuring the effect of a test compound on the activity against the NTRK1 enzyme using the ThermoFisher Z′-LYTE Assay fluorescence-based coupled enzyme format (www.thermofisher.com/selectscreen). Test compounds were screened at a fixed concentration of 1 uM and the % inhibition was determined compared to controls at a fixed ATP concentration of 1 mM. The resulting effect value for the tested compound was compared to the assay controls to determine the % inhibition (%). % Inhibition (%) values for compounds of the invention are presented in the Table that follows.

[4] = geometric mean of count n, activated CD4+ human T-cells, 20 to 24 hrs
[5] = test compound 1 uM, ATP 1 mM, arithmetic mean of count n

Chain of Tropomyosin Receptor Kinase A (TRKA, NTRK1 enzyme) (P04629 33-796): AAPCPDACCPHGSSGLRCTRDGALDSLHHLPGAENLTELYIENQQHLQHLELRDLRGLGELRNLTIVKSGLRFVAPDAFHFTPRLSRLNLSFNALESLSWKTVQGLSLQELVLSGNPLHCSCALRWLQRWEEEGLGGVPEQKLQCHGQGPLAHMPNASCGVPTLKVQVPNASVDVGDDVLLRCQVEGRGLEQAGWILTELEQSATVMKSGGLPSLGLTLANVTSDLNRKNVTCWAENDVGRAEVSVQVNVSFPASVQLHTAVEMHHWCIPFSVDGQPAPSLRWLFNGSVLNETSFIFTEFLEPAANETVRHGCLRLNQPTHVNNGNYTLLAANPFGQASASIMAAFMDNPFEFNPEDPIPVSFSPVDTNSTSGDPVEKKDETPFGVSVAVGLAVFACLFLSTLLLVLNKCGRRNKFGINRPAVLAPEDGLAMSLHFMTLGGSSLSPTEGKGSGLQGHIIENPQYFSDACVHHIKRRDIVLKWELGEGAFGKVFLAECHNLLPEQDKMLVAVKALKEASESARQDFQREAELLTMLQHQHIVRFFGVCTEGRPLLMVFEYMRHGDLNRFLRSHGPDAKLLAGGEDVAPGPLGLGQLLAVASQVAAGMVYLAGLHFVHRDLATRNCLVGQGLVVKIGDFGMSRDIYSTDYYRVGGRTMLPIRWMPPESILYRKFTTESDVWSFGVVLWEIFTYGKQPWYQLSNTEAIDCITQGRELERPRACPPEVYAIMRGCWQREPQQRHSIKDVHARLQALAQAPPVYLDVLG
Chain of IL-2-Inducible T-Cell Kinase (ITK) (Q08881 whole entry): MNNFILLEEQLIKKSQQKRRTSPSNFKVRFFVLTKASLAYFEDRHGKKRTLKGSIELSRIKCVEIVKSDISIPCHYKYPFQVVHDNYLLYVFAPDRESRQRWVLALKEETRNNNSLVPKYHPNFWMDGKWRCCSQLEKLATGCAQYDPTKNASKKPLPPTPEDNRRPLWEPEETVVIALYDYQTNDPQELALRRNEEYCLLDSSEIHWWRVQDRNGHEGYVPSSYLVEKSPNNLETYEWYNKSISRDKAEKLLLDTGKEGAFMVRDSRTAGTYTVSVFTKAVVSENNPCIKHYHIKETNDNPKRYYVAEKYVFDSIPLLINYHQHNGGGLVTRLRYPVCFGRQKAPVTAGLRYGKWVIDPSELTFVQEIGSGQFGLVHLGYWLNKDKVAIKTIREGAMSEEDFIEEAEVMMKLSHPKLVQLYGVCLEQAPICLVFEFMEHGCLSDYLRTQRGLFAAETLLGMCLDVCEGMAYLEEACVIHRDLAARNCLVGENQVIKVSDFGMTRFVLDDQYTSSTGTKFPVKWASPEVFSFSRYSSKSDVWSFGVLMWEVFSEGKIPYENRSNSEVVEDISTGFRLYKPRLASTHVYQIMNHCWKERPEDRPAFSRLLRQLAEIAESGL

Structure (SMILES) | IC50 [1] [nM] | IC50 [2, 4] [nM] | inhibition at 1 µM [3, 5] [%] | IC50 ([2]; Homo sapiens) [nM] | inhibition at 1 µM [3] [%]
COCCOc1cc2[nH]c(-c3n[nH]c4c3C[C@@H]3C[C@]3(C)C4)nc2cc1N(C)C(C)=O [Example 7, N-(6-(2-methoxyethoxy)-2-((4aS,5aR)-5a-methyl-1,4,4a,5,5a,6-hexahydrocyclopropa[f]indazol-3-yl)-1H-benzo[d]imidazol-5-yl)-N-methylacetamide] | 13 | 595 | 105 |  | 
CC(=O)N(C)c1cc2nc(-c3n[nH]c4c3C[C@@H]3C[C@]3(C)C4)[nH]c2cc1C [Example 17, N-Methyl-N-(6-methyl-2-((4aS,5aR)-5a-methyl-1,4,4a,5,5a,6-hexahydrocyclopropa[f]indazol-3-yl)-1H-benzo[d]imidazol-5-yl)acetamide] | 10 | 81 | 100 |  | 
Cc1cc2[nH]c(-c3n[nH]c4c3C[C@@H]3C[C@]3(C)C4)nc2cc1N(C)C(=O)[C@H]1CCCO1 [Example 23, (R)-N-Methyl-N-(5-methyl-2-((4aS,5aR)-5a-methyl-1,4,4a,5,5a,6-hexahydrocyclopropa[f]indazol-3-yl)-1H-benzo[d]imidazol-6-yl)tetrahydrofuran-2-carboxamide] | 10 | 89 | 97 |  | 
Cc1cc2[nH]c(-c3n[nH]c4c3C[C@@H]3C[C@]3(C)C4)nc2cc1N(C)C(=O)[C@@H]1CCOC1 [Example 29, (R)-N-Methyl-N-(6-methyl-2-((4aS,5aR)-5a-methyl-1,4,4a,5,5a,6-hexahydrocyclopropa[f]indazol-3-yl)-1H-benzo[d]imidazol-5-yl)tetrahydrofuran-3-carboxamide] | 6 | 61 | 97 |  | 
Cc1cc2[nH]c(-c3n[nH]c4c3C[C@@H]3C[C@]3(C)C4)nc2cc1N(C)C(=O)CN(C)C(=O)C(C)C [Example 30, N-Methyl-N-(2-(methyl(6-methyl-2-((4aS,5aR)-5a-methyl-1,4,4a,5,5a,6-hexahydrocyclopropa[f]indazol-3-yl)-1H-benzo[d]imidazol-5-yl)amino)-2-oxoethyl)isobutyramide] | 3 |  |  | 51 | 98
Cc1cc2[nH]c(-c3n[nH]c4c3C[C@@H]3C[C@]3(C)C4)nc2cc1N(C)C(=O)CN1CCCC1=O [Example 31, N-Methyl-N-(6-methyl-2-((4aS,5aR)-5a-methyl-1,4,4a,5,5a,6-hexahydrocyclopropa[f]indazol-3-yl)-1H-benzo[d]imidazol-5-yl)-2-(2-oxopyrrolidin-1-yl)acetamide] | 3 | 69 | 98 |  | 
CC(=O)N(CC(=O)N(C)c1cc2nc(-c3n[nH]c4c3C[C@@H]3C[C@]3(C)C4)[nH]c2cc1C)C(C)C [Example 35, 2-(N-Isopropylacetamido)-N-methyl-N-(6-methyl-2-((4aS,5aR)-5a-methyl-1,4,4a,5,5a,6-hexahydrocyclopropa[f]indazol-3-yl)-1H-benzo[d]imidazol-5-yl)acetamide] | 5 | 62 | 97 |  | 
CCOCC(=O)N(C)c1cc2nc(-c3n[nH]c4c3C[C@@H]3C[C@]3(C)C4)[nH]c2cc1C [Example 38, 2-Ethoxy-N-methyl-N-(6-methyl-2-((4aS,5aR)-5a-methyl-1,4,4a,5,5a,6-hexahydrocyclopropa[f]indazol-3-yl)-1H-benzo[d]imidazol-5-yl)acetamide] | 7 | 74 | 97 |  | 
